The values that follow come from ChEMBL document CHEMBL1275364, “Diaryldiamines with dual inhibition of the histamine H(3) receptor and the norepinephrine transporter and the efficacy of 4-(3-(methylamino)-1-phenylpropyl)-6-(2-(pyrrolidin-1-yl)ethoxy)naphthalen-1-ol in pain” (J Med Chem, 2010).

For data set [1], the target named is Sodium-dependent serotonin transporter (Homo sapiens, UniProt P31645).
Data set [2] has as its target T1, Histamine H3 receptor (Homo sapiens, UniProt Q9Y5N1). The data set is described as follows: biochemical.
Description: Displacement of [3H]N-R-methylhistamine from human H3 receptor isolated from C6 cells
Data set [3] addresses Histamine H3 receptor (Rattus norvegicus, UniProt Q9QYN8).
Description: Displacement of [3H]N-R-methylhistamine from rat H3 receptor
The target of a further data set is Transporter (Rattus norvegicus, UniProt Q63380). The data set is described as follows: biochemical.
Transporter, sequence (Q63380 whole entry): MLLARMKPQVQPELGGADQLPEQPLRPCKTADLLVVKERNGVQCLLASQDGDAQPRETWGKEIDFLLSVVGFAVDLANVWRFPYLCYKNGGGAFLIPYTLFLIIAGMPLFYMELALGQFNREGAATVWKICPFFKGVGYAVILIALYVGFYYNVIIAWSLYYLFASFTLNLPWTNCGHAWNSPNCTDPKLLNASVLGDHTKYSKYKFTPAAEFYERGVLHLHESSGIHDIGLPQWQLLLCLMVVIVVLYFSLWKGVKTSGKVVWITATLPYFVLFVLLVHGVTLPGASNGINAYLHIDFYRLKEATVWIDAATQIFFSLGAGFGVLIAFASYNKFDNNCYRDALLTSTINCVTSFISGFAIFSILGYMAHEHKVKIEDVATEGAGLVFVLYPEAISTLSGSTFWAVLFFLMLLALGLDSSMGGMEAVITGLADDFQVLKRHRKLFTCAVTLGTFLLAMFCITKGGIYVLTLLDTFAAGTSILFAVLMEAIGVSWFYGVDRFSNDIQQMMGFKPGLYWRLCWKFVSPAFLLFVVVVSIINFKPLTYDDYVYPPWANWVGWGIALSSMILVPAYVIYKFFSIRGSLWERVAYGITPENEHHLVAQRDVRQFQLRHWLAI
Data set [4] in a line: Plasma protein binding in Sprague-Dawley rat assessed as unbound fraction at 1 mg/kg, iv. It is filed as ADME, organism-based. Further details: dose 1 mg/kg, route intravenous.
Data set [5] deals with Rattus norvegicus. The data set is described as follows: Antiinflammatory activity in ip dosed Sprague-Dawley rat osteoarthritis model assessed as efficacy measured at 370 nM plasma concentration after 20 days. The class given is functional.
A short description of data set [6]: Cmax in Sprague-Dawley rat at 1 mg/kg, ip. It is filed as ADME, organism-based. Further details: dose 1 mg/kg, route intraperitoneal. The conditions noted are these: in vivo.
The test system of data set [7] is Rattus norvegicus. In words: Antiinflammatory activity in Sprague-Dawley rat osteoarthritis model assessed as efficacy at 3 mg/kg, ip after 20 days. The class given is functional. The settings on record: route intraperitoneal.
Data set [8] in a line: Plasma concentration in Sprague-Dawley rat osteoarthritis model at 3 mg/kg, ip after 45 mins. Details: dose 3 mg/kg, route intraperitoneal. The class given is ADME, organism-based.
The nature of data set [9]: Volume of distribution in Sprague-Dawley rat at 1 mg/kg, iv. The conditions noted are these: in vivo. It is filed as ADME, organism-based. Details: dose 1 mg/kg, route intravenous.
Data set [10] deals with Rattus norvegicus. In words: Ex vivo receptor occupancy of histamine H3 receptor in Sprague-Dawley rat osteoarthritis model at 3 mg/kg, ip. The settings on record: route intraperitoneal. The class given is functional.
Data set [11] relates to Rattus norvegicus. The data set is described as follows: Ex vivo receptor occupancy of NET in Sprague-Dawley rat osteoarthritis model at 1 mg/kg, ip. The class given is functional. The conditions noted are these: route intraperitoneal.
In data set [12] the test system is Rattus norvegicus. The data set is described as follows: Ex vivo receptor occupancy of histamine H3 receptor in Sprague-Dawley rat osteoarthritis model at 1 mg/kg, ip. The class given is functional. The conditions noted are these: route intraperitoneal.
The subject of data set [13] is Rattus norvegicus. In words: Antiinflammatory activity in Sprague-Dawley rat osteoarthritis model assessed as efficacy at 10 mg/kg, ip after 20 days. The class given is functional. The settings on record: route intraperitoneal.
For data set [14], the system named is Rattus norvegicus. In words: Ex vivo receptor occupancy of histamine H3 receptor in Sprague-Dawley rat osteoarthritis model at 10 mg/kg, ip. The class given is functional. The conditions noted are these: route intraperitoneal.
Data set [15] addresses T1, Histamine H3 receptor. In words: Antagonist activity at human recombinant histamine H3 receptor expressed in HEK cells assessed as inhibition of RAMH-induced [35S]GTPgammaS binding by liquid scintillation counting. It is filed as functional, cell-based. The conditions noted are these: HEK293.
The nature of data set [16]: Clearance in Sprague-Dawley rat at 1 mg/kg, iv. It is filed as ADME, organism-based. Further details: dose 1 mg/kg, route intravenous. The conditions noted are these: in vivo.
Data set [17] has as its system Rattus norvegicus. The data set is described as follows: Ex vivo receptor occupancy of NET in Sprague-Dawley rat osteoarthritis model at 10 mg/kg, ip. The class given is functional. The settings on record: route intraperitoneal.
The nature of data set [18]: Bioavailability in Sprague-Dawley rat at 1 mg/kg, ip and iv. The class given is ADME, organism-based. The settings on record: in vivo.
Data set [19] has as its system Rattus norvegicus. The data set is described as follows: Antiinflammatory activity in ip dosed Sprague-Dawley rat osteoarthritis model assessed as efficacy measured after 20 days. It is filed as functional. The conditions noted are these: 480 h.
Data set [20] can be described thus: Plasma concentration in Sprague-Dawley rat osteoarthritis model at 10 mg/kg, ip after 45 mins. The class given is ADME, organism-based. Further details: dose 10 mg/kg, route intraperitoneal.
The nature of data set [21]: Tmax in Sprague-Dawley rat at 1 mg/kg, ip. Details: dose 1 mg/kg, route intraperitoneal. It is filed as ADME, organism-based. The conditions noted are these: in vivo.
Data set [22] can be described thus: Plasma protein binding in Sprague-Dawley rat at 1 mg/kg, iv. The class given is ADME, organism-based. Details: dose 1 mg/kg, route intravenous. The conditions noted are these: read-out: PPB (converted).
Data set [23] relates to Rattus norvegicus. In words: Ex vivo receptor occupancy of NET in Sprague-Dawley rat osteoarthritis model at 3 mg/kg, ip. The conditions noted are these: route intraperitoneal. It is filed as functional.
Data set [24] is described as follows: Half life in Sprague-Dawley rat at 1 mg/kg, iv. The class given is ADME, organism-based. Further details: dose 1 mg/kg, route intravenous. The settings on record: in vivo.
Data set [25] can be described thus: Plasma concentration in Sprague-Dawley rat osteoarthritis model at 1 mg/kg, ip after 45 mins. The class given is ADME, organism-based. Details: dose 1 mg/kg, route intraperitoneal.

The term Ki denotes a dissociation constant, usually derived from enzyme kinetics or from competition with a known ligand. A low value points to a stronger hold on the target. Usually Cmax stands for the peak of the concentration-time curve. By Vd is commonly meant a proportionality between amount in the body and measured concentration, not a real space. High values mean wide distribution into tissue, low ones little distribution into tissue. Usually Kb stands for the equilibrium dissociation constant of an antagonist, usually derived from a functional assay. A word on the clearance: it is the rate of elimination divided by the concentration. High values mean efficient removal, low ones inefficient removal. One may read the bioavailability as the share of a dose that reaches the circulation, judged against a reference dose that is usually intravenous. Lower therefore signals poor availability. Broadly, the Tmax is the time from dosing to the highest level. In general, half-life refers to the time in which the quantity being followed falls by half.

Structures are written as SMILES. Values after ≈ are worked out from the molar mass of the structure shown. Some results are limits rather than exact numbers.

Sodium-dependent serotonin transporter, sequence (P31645 whole entry): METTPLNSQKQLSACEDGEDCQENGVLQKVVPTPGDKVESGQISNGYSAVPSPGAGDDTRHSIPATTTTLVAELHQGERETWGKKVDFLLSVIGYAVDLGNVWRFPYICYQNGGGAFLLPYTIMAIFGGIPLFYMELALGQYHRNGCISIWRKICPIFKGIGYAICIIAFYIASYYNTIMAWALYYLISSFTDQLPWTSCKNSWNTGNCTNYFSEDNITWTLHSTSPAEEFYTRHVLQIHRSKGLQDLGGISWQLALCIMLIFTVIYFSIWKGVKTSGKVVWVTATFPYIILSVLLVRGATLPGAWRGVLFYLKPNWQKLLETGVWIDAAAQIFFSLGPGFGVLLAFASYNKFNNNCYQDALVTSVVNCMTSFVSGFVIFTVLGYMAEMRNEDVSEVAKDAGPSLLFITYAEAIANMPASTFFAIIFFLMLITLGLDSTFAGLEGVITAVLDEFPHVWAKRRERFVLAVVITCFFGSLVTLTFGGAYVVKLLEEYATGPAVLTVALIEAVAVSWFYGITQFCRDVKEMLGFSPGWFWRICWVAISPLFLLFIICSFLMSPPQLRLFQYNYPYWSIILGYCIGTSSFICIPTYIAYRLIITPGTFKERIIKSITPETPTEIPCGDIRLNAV
T1 sequence (Q9Y5N1 whole entry): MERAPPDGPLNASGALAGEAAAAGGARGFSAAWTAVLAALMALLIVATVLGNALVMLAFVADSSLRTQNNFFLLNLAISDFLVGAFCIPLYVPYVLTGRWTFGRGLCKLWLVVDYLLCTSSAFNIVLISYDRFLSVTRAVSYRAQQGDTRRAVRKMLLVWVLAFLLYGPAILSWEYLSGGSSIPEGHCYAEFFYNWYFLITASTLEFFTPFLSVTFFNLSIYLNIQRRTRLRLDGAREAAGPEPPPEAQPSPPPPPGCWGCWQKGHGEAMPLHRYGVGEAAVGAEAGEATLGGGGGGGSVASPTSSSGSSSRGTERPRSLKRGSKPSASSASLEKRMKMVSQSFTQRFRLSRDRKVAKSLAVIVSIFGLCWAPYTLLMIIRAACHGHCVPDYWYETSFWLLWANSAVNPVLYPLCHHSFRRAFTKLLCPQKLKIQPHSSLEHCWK
Histamine H3 receptor (Rattus norvegicus, UniProt Q9QYN8), sequence (Q9QYN8 whole entry): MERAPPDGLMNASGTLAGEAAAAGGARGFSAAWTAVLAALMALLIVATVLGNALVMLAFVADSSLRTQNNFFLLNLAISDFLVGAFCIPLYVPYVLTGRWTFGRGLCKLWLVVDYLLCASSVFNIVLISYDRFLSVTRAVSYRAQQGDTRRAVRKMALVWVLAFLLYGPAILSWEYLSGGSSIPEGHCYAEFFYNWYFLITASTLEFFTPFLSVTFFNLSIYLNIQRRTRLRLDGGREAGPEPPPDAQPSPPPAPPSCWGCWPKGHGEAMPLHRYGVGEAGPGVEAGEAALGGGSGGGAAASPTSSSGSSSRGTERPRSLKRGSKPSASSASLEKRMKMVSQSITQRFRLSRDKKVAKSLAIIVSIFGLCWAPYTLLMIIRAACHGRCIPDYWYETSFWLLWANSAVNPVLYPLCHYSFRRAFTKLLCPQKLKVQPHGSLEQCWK

Consider `CNCCC(c1ccccc1)c1ccc(OCCN2CCCC2)cc1` (centres undefined), for which the Ki in [1] was over 70 nM; at Histamine H3 receptor [2], 1.4 nM; on Histamine H3 receptor [3] it was 5.2 nM; on Transporter it was 4.3 nM.
Take `CNCCC(c1ccccc1)c1ccc(O)c2ccc(OCCN3CCCC3)cc12` (centres undefined): the fraction unbound in data set [4] and in [22] was 0.33 throughout. Moreover, the inhibition constant (Ki) in data set [1] was found to be 7 nM; on Histamine H3 receptor [2] it was 7.4 nM; at Histamine H3 receptor [3], 37 nM; on Transporter it was 14 nM. Also, the ED50 in the data set on Rattus norvegicus [5] was found to be 0.15 µg/mL (≈ 0.371 µM); in the data set on Rattus norvegicus [19], 1.2 mg/kg. The compound further came in with a peak concentration (Cmax) in [6] of 210 ng/mL. The Activity came to 70% in the data set with Rattus norvegicus [7]; 89% with Rattus norvegicus [10]; 88% in the data set with Rattus norvegicus [11]; 74% with Rattus norvegicus [12]; 93% in the data set on Rattus norvegicus [13]; 97% in the data set on Rattus norvegicus [14]. In addition, the values for the Activity in the data set on Rattus norvegicus [17] and in the data set on Rattus norvegicus [23] were 99% and 96%, respectively. The concentration at 0.75 h in data set [8] was determined as 382 ng/mL; in data set [20], 1240 ng/mL; in data set [25], 129 ng/mL. Also, the Vd in data set [9] stood at 8.2 L/kg. Further, the Kb at Histamine H3 receptor [15] came out at 8.3 nM. This compound showed a clearance in data set [16] of 7.67 mL/min/kg. This compound also came in with a bioavailability in data set [18] of 43%. In addition, in data set [21], the Tmax stood at 0.25 h. In [24], the half-life is 12 h.
`CNCCCN(c1ccccc1)c1ccc(OCCN2CCCC2)cc1`: the inhibition constant (Ki) was over 70 nM in [1], 0.28 nM at Histamine H3 receptor [2], 0.72 nM on Histamine H3 receptor [3] and 110 nM on Transporter. The Kb at Histamine H3 receptor [15] turned out to be 0.79 nM.
For `CNCCN(c1ccccc1)c1ccc(OCCN2CCCC2)cc1`, in that order: over 70 nM, 1.6 nM, 5.4 nM, 89 nM and 2.4 nM.
As for `CNCCCC(c1ccccc1)c1ccc(OCCN2CCCC2)cc1` (centres undefined), the inhibition constant (Ki) was over 70 nM in data set [1], 0.89 nM at Histamine H3 receptor [2], 2.9 nM at Histamine H3 receptor [3] and 14 nM on Transporter. The antagonist equilibrium constant (Kb) at Histamine H3 receptor [15] came to 2.1 nM.
Compound `CNCCC(c1ccccc1)c1cccc2ccccc12` (centres undefined) had a Ki in data set [1] of 2.4 nM.
Regarding `CNCCC(Oc1cccc2cc(OCCN3CCCC3)ccc12)c1ccccc1` (centres undefined), the Kb on Histamine H3 receptor [15] was found to be 67 nM. Moreover, the Ki on Histamine H3 receptor [3] is 48 nM; at Transporter, 230 nM.
